Counter-ions that a name gives are not always drawn.

The experiment deals with T1, human CPT1A (Homo sapiens, UniProt P50416).
T1 construct: made in house; host or cells: Saccharomyces cerevisiae (pESC-trp) or cultured mammalian cells (pCDNA3.1); mitochondrial extract
T1 sequence (P50416 1-773): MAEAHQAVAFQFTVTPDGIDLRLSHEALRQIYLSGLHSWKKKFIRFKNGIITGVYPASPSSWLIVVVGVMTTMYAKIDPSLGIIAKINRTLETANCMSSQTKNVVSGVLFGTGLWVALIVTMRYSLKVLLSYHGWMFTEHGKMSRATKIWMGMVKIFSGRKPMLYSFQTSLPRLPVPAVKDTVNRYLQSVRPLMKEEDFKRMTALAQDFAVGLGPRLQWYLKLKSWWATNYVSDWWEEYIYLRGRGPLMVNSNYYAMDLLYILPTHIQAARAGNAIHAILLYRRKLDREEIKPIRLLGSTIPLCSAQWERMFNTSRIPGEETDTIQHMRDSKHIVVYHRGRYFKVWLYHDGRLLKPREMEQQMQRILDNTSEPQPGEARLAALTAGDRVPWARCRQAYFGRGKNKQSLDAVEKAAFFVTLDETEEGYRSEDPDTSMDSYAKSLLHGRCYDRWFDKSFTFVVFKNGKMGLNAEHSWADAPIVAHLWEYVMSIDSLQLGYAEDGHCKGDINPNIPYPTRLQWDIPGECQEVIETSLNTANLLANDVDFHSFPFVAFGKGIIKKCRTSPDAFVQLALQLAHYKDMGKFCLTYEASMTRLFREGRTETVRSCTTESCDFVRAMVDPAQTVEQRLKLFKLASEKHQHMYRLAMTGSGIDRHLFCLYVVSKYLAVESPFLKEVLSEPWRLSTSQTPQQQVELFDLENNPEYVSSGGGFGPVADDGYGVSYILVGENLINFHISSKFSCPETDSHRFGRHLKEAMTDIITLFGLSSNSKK
Nature of the experiment: Human CPT1A LC/MS assay. It is filed as biochemical. The following applies: human CPT1A LC/MS assay, dose response format. An excerpt:
Nucleotide sequences encoding human CPT1 enzymes were individually cloned into the yeast expression vector pESC-trp at the Cla1 (5′ terminus) and Pac1 (3′ terminus) restriction sites by PCR amplification of the open reading frame using oligonucleotide primers designed to encode the wild-type CPT1 protein sequence. Standard molecular biology techniques were used to transform and express the CPT1 proteins in the yeast Saccharomyces cerevisiae. The yeast cells were lysed by enzymatic degradation of the cell wall by Zymolase, and the mitochondria were isolated by standard biochemical techniques. The integrity of the isolated mitochondria was monitored by determining the activity of succinate dehydrogenase in the mitochondrial preparations. The mitochondrial extracts were stored at −80° C. in buffer containing 10 mM HEPES pH 7.4 and 250 mM sucrose.
Human CPT1 (A, B, C) genes were additionally cloned into the pCDNA3.1 vector individually for expression in cultured mammalian cells. Cells expressing the exogenous CPT1A were identified and grown under standard conditions. Mammalian cells were harvested, and mitochondrial extracts prepared using standard biochemical methods. The mitochondrial extracts were stored at −80° C. in buffer containing 10 mM HEPES pH 7.4 and 250 mM sucrose.
Assays were performed in 96-well plate format. Each 100 μL reaction contained 40 mM KCl, 50 mM TrisHCl pH 7.5, and 250 mM mannitol (Assay Buffer), and 1.6 μg protein of an extract, 20 μM palmitoyl-CoA, 50 μM L-carnitine, and 10 ug/mL BSA. Reactions were incubated at room temperature and stopped after 10 minutes by extraction with 200 μL of water saturated n-butanol containing myristoyl carnitine (500 nM) as an internal standard. The samples were thoroughly mixed, and the phases separated by centrifugation. Samples were prepared for analysis with a 10 fold dilution of the n-butanol phase containing the reaction product palmitoyl carnitine into a 50:50 (acetonitrile:water) solvent for analysis. […] of prepared sample was separated on a Phenomenex Jupiter 5μ C4 reverse-phase column using an Agilent 1100 HPLC with a gradient from 50% acetonitrile (0.5% acetic acid) to 100% acetonitrile and quantified by detection with a Bruker Esquire 3000plus mass spectrometer. The abundance of the palmitoyl carnitine product was determined relative to the internal standard and the actual quantity of palmitoyl carnitine can be determined from a standard curve prepared using the n-butanol solution containing the internal standard.
Compounds were evaluated in two formats, a screening format, and a dose response format. The screening format was performed by adding 25 μL compound in 20% DMSO and Assay Buffer to 25 μL of extract containing […] and Assay Buffer, followed by a 10 minute incubation at room temperature. 50 μL of 40 μM palmitoyl-CoA in Assay Buffer was added to the reaction mixture, mixed and incubated for 10 minutes at room temperature. A negative control for activity was also performed where the carnitine was omitted from the reaction. A positive control for activity was also performed by omitting compound from the solution containing 20% DMSO and Assay Buffer. The reaction mixture was extracted and analyzed as described above. The inhibition by compound was determined by comparing the control relative activity to the relative activity observed in wells containing the compound. Relative activity was determined by subtracting the relative intensity (area palmitoyl carnitine/area myristoyl carnitine) observed in the negative control from the relative intensity observed in the experimental well, and dividing by the relative activity observed in the positive control.
[formula] Compound characterization by dose response format was performed using the above described assay conditions and a 16 point compound titration in 2 fold compound dilution steps. The DMSO concentration was kept constant at 20% (v/v) for all compound concentrations.
As usually defined, the IC50 is the midpoint of a concentration-inhibition curve. A high value points to lower potency. `Cc1ncoc1C(=O)N[C@H](CC(=O)O)C[N+](C)(C)C` [Example S49, (R)-3-carboxy-N,N,N-trimethyl-2-(4-methyloxazole-5-carboxamido)-propan-1-aminium trifluoroacetate] gave an IC50 of 100 to 1000 µM.
The compound `C[N+](C)(C)C[C@@H](CC(=O)O)NC(=O)c1ccc(NS(=O)(=O)c2cccs2)cc1` [Example S2, (R)-3-(4-(thiophene-2-sulfonamido)benzamido)-4-(trimethylammonio)-butanoate] came in with an IC50 of 100 to 1000 µM.
On to `CCCCCCCCCCc1ccc(NS(=O)(=O)N[C@H](CC(=O)O)C[N+](C)(C)C)cc1` [Example S92, (R)-3-(N-(4-decylphenyl)sulfamoylamino)-4-(trimethylammonio)butanoate], for which the IC50 was at most 1 µM.
Next, `C[N+](C)(C)C[C@@H](CC(=O)[O-])NC(=O)Nc1ccc(C(F)(F)F)cc1Cl` [Example S6, (R)-3-(3-(2-chloro-4-(trifluoromethyl)phenyl)ureido)-4-(trimethylammonio)-butanoate]: 100 to 1000 µM.
Compound `C[N+](C)(C)C[C@@H](CC(=O)[O-])NC(=O)c1ccc(Br)o1` [Example S114, (R)-3-(5-bromofuran-2-carboxamido)-4-(trimethylammonio)butanoate] yielded an IC50 of 100 to 1000 µM.
`CCCCCc1ccc(C#Cc2ccc(C(=O)N[C@H](CC(=O)[O-])C[N+](C)(C)C)o2)cc1` [Example S115, (R)-3-carboxy-N,N,N-trimethyl-2-(5-((4-pentylphenyl)ethynyl)furan-2-carboxamido)propan-1-aminium 2,2,2-trifluoroacetate] had an IC50 of at most 1 µM.
In the case of `CCCn1cc(C(=O)N[C@H](CC(=O)[O-])C[N+](C)(C)C)c(C)n1` [Example S54, (R)-3-(3-methyl-1-propyl-1H-pyrazole-4-carboxamido)-4-(trimethyl-ammonio)butanoate] it was 1000 to 2500 µM; in that of `C[N+](C)(C)C[C@@H](CC(=O)O)NC(=O)c1ccc(C#Cc2ccsc2)o1` [Example S116, (R)-3-carboxy-N,N,N-trimethyl-2-(5-(thiophen-3-ylethynyl)furan-2-carboxamido)propan-1-aminium 2,2,2-trifluoroacetate], 10 to 100 µM.
Next, `CCCCCCC#Cc1cccc(NS(=O)(=O)N[C@H](CC(=O)[O-])C[N+](C)(C)C)c1` [Example S110, (R)-3-(N-(3-(oct-1-ynyl)phenyl)sulfamoylamino)-4-(trimethylammonio) butanoate]: 10 to 100 µM; `CCCCCCOc1cccc(CCc2ccc(C(=O)N[C@H](CC(=O)O)C[N+](C)(C)C)o2)c1` [Example S125, (R)-3-carboxy-2-(5-(3-(hexyloxy)phenethyl)furan-2-carboxamido)-N,N,N-trimethylpropan-1-aminium 2,2,2-trifluoroacetate]: at most 1 µM; `C[N+](C)(C)C[C@@H](CC(=O)O)NS(=O)(=O)c1ccc(-c2ccccn2)s1` [Example S21, (R)-3-(5-(pyridin-2-yl)thiophene-2-sulfonamido)-4-(trimethylammonio)-butanoate 2,2,2-trifluoroacetate]: 1000 to 2500 µM.
Regarding `Cc1ccc(C#Cc2ccc(S(=O)(=O)N[C@H](CC(=O)O)C[N+](C)(C)C)s2)cc1` [Example S80, (R)-3-carboxy-N,N,N-trimethyl-2-(5-(p-tolylethynyl)thiophene-2-sulfonamido)propan-1-aminium 2,2,2-trifluoroacetate], the IC50 lay in the range of 10 to 100 µM.
`C[N+](C)(C)C[C@@H](CC(=O)[O-])NC(=O)C(F)(F)c1ccccc1` [Example S69, (R)-3-(2,2-difluoro-2-phenylacetamido)-4-(trimethylammonio)butanoate] gave an IC50 of 100 to 1000 µM.
In turn, `CCCCCc1ccc(C#Cc2ccc(NS(=O)(=O)N[C@H](CC(=O)[O-])C[N+](C)(C)C)cc2)cc1` [Example S107, (R)-3-(N-(4-((4-pentylphenyl)ethynyl)phenyl)sulfamoylamino)-4-(trimethylammonio)butanoate] gave an IC50 of 1 to 10 µM.

Source of the values: US8410150B2, “Inhibitors of carnitine palmitoyltransferase and treating cancer” (University Health Network, priority 2007, dated 2013).
